“Also recorded” adds a separate entry of the source. Where no end group is shown, it is not given here.
Assays:
[1] = tested on: endothelial nitric oxide synthase (eNOS) mRNA; experiment: RT-PCR of eNOS mRNA in HUVEC; type: cell-based, human; settings: data not shown
Protocol: (§1) Cells were cultured with various concentrations of test materials, either with or without stimulus, for varying times. The cells were collected, washed and total RNA isolated using the RNeasy Mini Kit (Qiagen; Valencia, CA). Following isolation the RNA was treated with 7 units of DNase I according to the RNase-Free DNase Set (Qiagen; Valencia, CA) protocol. Using these procedures we usually obtained ∼50 µg of total RNA/10^7 cells. cDNA was prepared from the isolated mRNAs and RT-PCR performed on the target cytokines/chemokines/growth factors using appropriate primer pairs and a control primer pair for β-actin (all from R & D Systems; Minneapolis, MN). RT-PCR was generally performed for 30 cycles for β-actin and 35–45 cycles for iNOS and VEGF.

HUVEC = experiment: Staurosporine-induced apoptosis in HUVEC (Cell Death Detection ELISA); type: cell-based, human; settings: for protection against staurosporine-induced apoptosis: 50 µM peptide 3 h before staurosporine (500 nM), measured 18 h after staurosporine (Figure 11B)
Protocol: Apoptosis was measured in HUVEC using the Cell Death Detection ELISA^PLUS kit (Roche Diagnostics; Indianapolis, IN) according to the manufacturer's instructions. This assay is based on a quantitative sandwich-enzyme-immunoassay using mouse monoclonal antibodies directed against both DNA and histones, respectively. It allows the specific determination of mono- and oligonucleosomes in the cytoplasmic fraction of cell lysates (apoptosis) and in the supernatant of dying cells (necrosis). The apoptotic index (AI) was calculated as
where treatment refers to use of a known apoptosis- or necrosis-inducing agent (staurosporine, TNF-α).

[2] = tested on: iNOS (inducible nitric oxide synthase) mRNA; experiment: RT-PCR of iNOS mRNA in HUVEC; type: cell-based, human; settings: for induction of mRNA for iNOS in HUVEC: 50 µM peptide, 3 h, 37°C, quiescent HUVEC, RT-PCR
Protocol: as §1

dengue virus = experiment: Vascular leak in liver of mice injected with dengue virus; parameters: species or system mouse; settings: 1 µg intraperitoneal; dengue virus i.v.; preliminary in vivo studies
[3] = qualitative ranking of the three peptides
iNOS mRNA = iNOS mRNA induction in HUASMC; type: cell-based, human; settings: compared with MN10021
Protocol: as §1

[4] = tested on: nitrate in HUVEC supernatants; experiment: NO release (nitrate as nitrite) from HUVEC; type: cell-based, human; settings: 50 µM peptide
Protocol: HUVEC were grown to 80–90% confluence in 12-well tissue culture plates using defined media provided by Cambrex and supplemented with 10% FBS. Triplicate wells were incubated with either media alone or media containing 50 µM of the indicated peptide. Supernatant samples were removed from each well at 6 h and 24 h post peptide addition and assayed for NO release as measured by the presence of nitrate (converted to nitrite) using a kit supplied by Oxford Biomedical Research (Rochester Hill, MI) according to the manufacturer's instructions.

carrageenan-induced DIC = experiment: Mouse carrageenan-induced DIC model, lethality; type: in vivo, mouse (CD-1); settings: data not shown
Protocol: Groups of 10 male CD-1 mice were injected i.p. with 0.25 ml of either vehicle (PBS) or peptide in vehicle at varying times prior to the i.p. injection of 1.0 ml of carrageenan (0.45% [w/v] in PBS; Sigma). In experiments where serum cytokine levels were determined, groups of 5 mice were euthanized at 1-, 2-, 4-, 8-, and 24-h post injection of carrageenan, blood collected by cardiac puncture into heparinized syringes, and the resultant plasma stored at −80°C until assayed by ELISA. […] At 1-, 2-, 4-, and 24-h post injection of carrageenan, five mice from each group were euthanized and heparinized blood samples collected from the heart using heparinized syringes for subsequent determinations of WBC (white blood cell) counts, RBC (red blood cell) counts, or PLT (platelet) counts.

[5] = tested on: inflammatory accumulation of monocytes/macrophages; experiment: Mouse NaIO4-induced inflammatory peritonitis model; type: in vivo, mouse (CD-1); settings: monocyte/macrophage accumulation at 48 h; for Dose Achieving Maximum Inhibition (nmoles) / Dose Achieving Maximum Inhibition (µg): CD-1 mice, agent s.c. 24 h before i.p. NaIO4; for Maximum Inhibition (%): groups of five CD-1 mice, agent s.c. 24 h before i.p. NaIO4 (5 mM, 1.0 ml), one experiment; for IC50 (nmoles) / IC50 (µg): in vivo dose per mouse, s.c. 24 h before i.p. NaIO4
Protocol: Effects of test compounds on the inflammatory accumulation of monocytes/macrophages or neutrophils in vivo were determined using a mouse peritonitis model. Briefly, groups of five 6–8 week old CD-1 outbred mice (Charles River; Raleigh, NC) were injected intraperitoneally (i.p.) with 1.0 ml of a sterile inflammatory stimulus (NaIO4; 5 mM in sterile isotonic saline; Sigma; St. Louis, MO). This procedure results in a dramatic accumulation of neutrophils in the peritoneal cavity which peaks at 6–8 h post injection, followed by an accumulation of monocytes/macrophages which peaks at 48–72 h post injection. Mice were euthanized by CO2 asphyxiation at either 6 h (for neutrophils) or 48 h (for monocyte/macrophages), the peritoneal cavities lavaged with two 10-ml washes of heparinized (10 u/ml; Sigma; St. Louis, MO) HBSS containing 0.1% (w/v) BSA, the washes pooled, and total and differential cells counts determined for each pooled cell suspension. Each test material was evaluated in a group of five mice, each of which was injected subcutaneously in the thigh with 0.2 ml of test material in HBSS 24 h prior to the i.p. injection of the inflammatory stimulus.

inflammation [6] = tested on: inflammation; parameters: method as in earlier work; settings: cited from earlier work
lymphocyte proliferation = tested on: lymphocyte proliferation; parameters: method as in PMID 1634759, PMID 1534759; settings: cited from earlier work
[7] = tested on: human monocyte chemotactic responses; parameters: method as in PMID 1634759, PMID 1534759; settings: cited from earlier work
inflammation [8] = tested on: inflammation; parameters: method as in earlier work; settings: cited from earlier work; remark: listed apart in the source
systolic blood pressure = experiment: SHR rat hypertension model (tail cuff); type: in vivo; settings: 100 mg/kg orally (gavage), groups of 3 SHR rats, tail cuff, vs 0 h value
Protocol: As part of a general pharmacological screen, MN10021 was evaluated in a rat model of hypertension by MDS-PanLabs (Bothell, WA). […] Blood pressure measurements were made by tail cuff at 1, 2, and 4 h post administration of test compounds. A decrease of ≥10% of the baseline systolic blood pressure is considered significant in this assay.

Question: What does the source list for Ac-GLDLLFLK-NH2 [DUK0005]?
Answer: effect on expression of mRNA for eNOS [1]: Neither MN10021 nor DUK0005 affected; protection against staurosporine-induced apoptosis (HUVEC): significant protection; effect of L-NAME pretreatment on protective effect against staurosporine-induced apoptosis (HUVEC; 2 mM L-NAME 5 h, then 50 µM peptide 3 h, staurosporine 500 nM ON (Figure 12)): no effect; maximal protection against staurosporine-induced apoptosis (HUVEC; peptide added 3 h before staurosporine, up to 50 µM peptide, quadruplicate wells (Figure 10A, 10C)): ~40%; induction of mRNA for iNOS in HUVEC [2]: most effective; also recorded: as effective as MN10021; effect on vascular leak in the liver of dengue virus-injected mice (dengue virus): inhibit the vascular leak; relative solubility among DUK0004, DUK0005, DUK0006 [3]: intermediate; induction of iNOS mRNA in HUASMC (iNOS mRNA): as effective as MN10021; nitrate release (as measured by nitrite assay) from HUVEC ([4]; 6 h or ON): induced nitrate release

Question: For `COc1ccc2cc([C@H](C)C(=O)O)ccc2c1` [naproxen], which “ability to protect mice in DIC model” value (carrageenan-induced DIC) is on record?
Answer: Its value is “no success”.

Question: For `N=C(N)NN` [aminoguanidine], which “ability to protect mice in DIC model” value (carrageenan-induced DIC) is on record?
Answer: The value was “no success”.

Question: With `CC(=O)Nc1ccc(O)cc1` [Acetaminophen, acetaminophen] as the compound, how does the “Dose Achieving Maximum Inhibition (nmoles)” value [5] read?
Answer: The value was 6614 nmol.

Question: And the “Dose Achieving Maximum Inhibition (µg)” value [5]?
Answer: The value was 1000 µg.

Question: And the “Maximum Inhibition (%)” value [5]?
Answer: The value was 95%.

Question: And the “IC50 (nmoles)” value [5]?
Answer: Its value is 132 nmol.

Question: What about the “IC50 (µg)” value [5] of the same compound?
Answer: Its value is 20 µg.

Question: And the “ability to protect mice in DIC model” value (carrageenan-induced DIC)?
Answer: The value was “no success”.

Question: For `O=C(O)Cc1ccccc1Nc1c(Cl)cccc1Cl` [Diclofenac, diclofenac], which “Dose Achieving Maximum Inhibition (nmoles)” value [5] is on record?
Answer: The value was 314 nmol.

Question: What about the “Dose Achieving Maximum Inhibition (µg)” value [5] of the same compound?
Answer: The value was 100 µg.

Question: And the “Maximum Inhibition (%)” value [5]?
Answer: Its value is 90%.

Question: And the “IC50 (nmoles)” value [5]?
Answer: Its value is 16 nmol.

Question: And the “IC50 (µg)” value [5]?
Answer: Its value is 5 µg.

Question: What about the “ability to protect mice in DIC model” value (carrageenan-induced DIC) of the same compound?
Answer: Its value is “no success”.

Question: For GLDLLFLK [DUK0001], which “induction of mRNA for iNOS in HUVEC” value [2] is on record?
Answer: The value was “weak induction”.

Question: For acetyl-GLDLLFLK-acetyl [DUK0004], which “induction of mRNA for iNOS in HUVEC” value [2] is on record?
Answer: Its value is “comparable”.

Question: And the “relative solubility among DUK0004, DUK0005, DUK0006” value [3]?
Answer: Its value is “least soluble”.

Question: Which results are given for GLDLLFLK-NH2 [DUK0006]?
Answer: induction of mRNA for iNOS in HUVEC [2]: comparable; relative solubility among DUK0004, DUK0005, DUK0006 [3]: most soluble

Question: With `CCN(CC)CCCC(C)Nc1c2ccc(Cl)cc2nc2ccc(OC)cc12` (stereo not shown) [quinacrine] as the compound, how does the “ability to protect mice in DIC model” value (carrageenan-induced DIC) read?
Answer: The value was “no success”.

Question: With Ac-GLDLLYLK-NH2 [DUK0007] as the compound, how does the “protection against staurosporine-induced apoptosis” value (HUVEC) read?
Answer: The value was “no protective effective”.

Question: And the “induction of mRNA for iNOS in HUVEC” value [2]?
Answer: Its value is “does not induce iNOS”.

Question: And the “effect on induction of iNOS by DUK005 when combined 1:1” value ([2]; HUVEC, data not shown)?
Answer: The value was “inhibits the induction of iNOS”.

Question: What about the “nitrate release, percent of MN10021” value ([4]; 6 h and ON incubations) of the same compound?
Answer: Its value is at most 25%.

Question: For “LDLLFL [hexapeptide corresponding to the central six amino acids of DUK0005, studied by other investigators]”, which “anti-inflammatory activity in mice” value (inflammation [6]) is on record?
Answer: The value was “did not find this hexapeptide to be anti-inflammatory”.

Question: What about the “effect on ligand (CD3) and interleukin-2 (IL-2)-induced lymphocyte proliferation” value (lymphocyte proliferation) of the same compound?
Answer: The value was “inhibited”.

Question: What about the “effect on in vitro human monocyte chemotactic responses” value [7] of the same compound?
Answer: The value was “inhibited”.

Question: And the “anti-inflammatory activity in guinea pigs” value (inflammation [8])?
Answer: Its value is “did not find this hexapeptide to be anti-inflammatory”.

Question: For `C[C@@H]1C[C@H]2[C@@H]3CCC4=CC(=O)C=C[C@]4(C)[C@@]3(F)[C@@H](O)C[C@]2(C)[C@@]1(O)C(=O)CO` [Dexamethasone], which “Dose Achieving Maximum Inhibition (nmoles)” value [5] is on record?
Answer: The value was 204 nmol.

Question: And the “Dose Achieving Maximum Inhibition (µg)” value [5]?
Answer: The value was 80 µg.

Question: And the “Maximum Inhibition (%)” value [5]?
Answer: The value was 75%.

Question: What about the “ability to protect mice in DIC model” value (carrageenan-induced DIC) of the same compound?
Answer: Its value is “no success”.

Question: Which “ability to protect mice in DIC model” value (carrageenan-induced DIC) does the source give for `COc1ccc2c(c1)c(CC(=O)O)c(C)n2C(=O)c1ccc(Cl)cc1` [indomethacin] here?
Answer: The value was “no success”.

Question: Which “decrease in blood pressure at 1 h” value (systolic blood pressure) does the source give for `C[C@](N)(Cc1ccc(O)c(O)c1)C(=O)O` [L-methyldopa, reference compound] here?
Answer: The value was 16%.

Question: What about the “decrease in blood pressure at 2 h” value (systolic blood pressure) of the same compound?
Answer: Its value is 23%.

Question: What about the “decrease in blood pressure at 4 h” value (systolic blood pressure) of the same compound?
Answer: The value was 28%.

Question: Which “ability to protect mice in DIC model” value (carrageenan-induced DIC) does the source give for `CN[C@@H]1C[C@H]2O[C@@](C)([C@@H]1OC)n1c3ccccc3c3c4c(c5c6ccccc6n2c5c31)C(=O)NC4` [staurosporine] here?
Answer: The value was “no success”.

Source: article PMC3527569, “Anti-Inflammatory and Vasoprotective Activity of a Retroviral-Derived Peptide, Homologous to Human Endogenous Retroviruses: Endothelial Cell Effects” (PLoS ONE, 2012)
